According to US20190338251A1, “Skeletal Muscle Precursor Cells and Production Method for Skeletal Muscle Cells” (Takeda Pharmaceutical Company Limited, priority 2016, published 2019):

Key:
Type in all cases: cell-based, human
253G1 cells [1] = assay: Study on reagent to be added: fluorescent immunostaining of induced myotube and skeletal muscle cells; conditions: for use of one reagent instead of the reference reagent (CHIR or SB) for induction: 0.5 μM BIO or 10 μM 5B216763 instead of CHIR; for use of one reagent instead of the reference reagent (CHIR or SB) for induction / use of one reagent instead of the reference reagent (SB or FSK) for induction: 1 μM A83-01 instead of SB; for use of combined replacement reagents for induction: several reference reagents (CHIR, SB, DM, FSK) replaced at once; for use of two reagents instead of SB and DM for induction / use of one reagent instead of the reference reagent (SB or FSK) for induction: fibronectin-coated vessel (section 5-2); for use of two reagents instead of SB and DM for induction: 1 μM A83-01 and 0.1 μM LDN193189; for use of one reagent instead of the reference reagent (SB or FSK) for induction: 50 μM dbcAMP instead of FSK
Experimental: (§1) According to Reference Example 1, 253G1 cells were plated over a Matrigel-coated culture vessel. Two days thereafter, the E8 medium was replaced with B-27 medium supplemented with 5 μM CHIR and 1% AA to start differentiation (the starting day of differentiation was defined as day 0 of differentiation).
On day 2 of differentiation, the medium was replaced with B-27 medium supplemented with 1% AA, 10 μM SB and 0.5 μM DM. On day 4 of differentiation, the medium was further replaced with B-27 medium supplemented with 1% AA and 10 μM FSK. The culture was continued until day 7 of differentiation.
On day 7 of differentiation, the medium was replaced with DMEM (high glucose) medium supplemented with 10 μM FSK, 5% StemSure Serum Replacement, 1% AA and 1% ITS-G. The culture was continued with the medium replaced every 2 to 3 days.
The cells (skeletal muscle precursor cells) on week 3 of differentiation were cryopreserved in the same way as the method described in Example 3. The cryopreserved cells were thawed, plated, and cultured for 2 days in the same way as the method described in Example 3. Then, the medium was replaced with DMEM (high glucose) medium supplemented with 10 μg/mL FGF2, 10 μM FSK, 1% AA, 5% StemSure Serum Replacement and 1% ITS-G. The culture was continued for 2 weeks with the medium replaced every 2 to 3 days.
The cells thus cultured for 2 weeks were fluorescently immunostained using an antibody recognizing myosin heavy chains (R&D Systems, Inc., clone No.: MF20), an antibody recognizing desmin (Abcam plc.) and Hoechst 33342 for nuclear staining (Dojindo Laboratories). As a result, multinuclear myotube cells costained with both the antibodies were confirmed (FIG. 5, left diagram).
On week 2 of culture, the medium was replaced with growth factor- and FSK-free DMEM (low glucose) medium supplemented with 1% AA, 5% StemSure Serum Replacement and 1% ITS-G, and the culture was continued with the medium replaced. On week 4 of culture, the cells were fluorescently immunostained using an antibody recognizing α-actinin (Sigma-Aldrich Co. LLC), an antibody recognizing dystrophin (Abcam plc.) and Hoechst 33342. As a result, multinuclear skeletal muscle cells were stained (FIG. 5, right diagram).
Various changes in conditions were studied with reference to the experiment described above. The frozen cells on weeks 2 and 4 of culture were similarly fluorescently immunostained and evaluated.
Cells were obtained in the same way as the method described in the preceding section “5-1” except that a culture vessel coated with fibronectin (Sigma-Aldrich Co. LLC) instead of Matrigel was used. After thawing, myotube cells (FIG. 6, left diagram) and skeletal muscle cells (FIG. 6, right diagram) were confirmed on weeks 2 and 4, respectively, of culture.

253G1 cells [2] = assay: Somitic mesoderm marker gene expression on day 7 of differentiation; conditions: 2 to 4 μM CHIR days 0 to 2, then SB (and DM) days 2 to 4, then FSK days 4 to 7
Experimental: as §1, with “with 1 to 6” for “with 5”
(§2) On day 2 of differentiation, change in the expression of pan-mesodermal marker genes BRACHYURY and TBX6 was examined. The change in gene expression was analyzed by the following procedures: total RNA was prepared using RNeasy 96 Kit or RNeasy Mini Kit (Qiagen N.V.), and cDNA was then synthesized from the total RNA using reverse transcriptase (PrimeScript RT reagent kit, Takara Bio Inc.). The obtained cDNA was subjected to real-time PCR using a Taqman probe (Applied Biosystems, Inc.). A sample prepared from the 253G1 cells before the start of differentiation was used as a reference sample. The gene expression levels of BRACHYURY and TBX6 were calculated by the comparative Ct method.
On day 2 of differentiation, the medium was replaced with B-27 medium supplemented with 1% AA and 10 μM SB (and 0.3 to 1 μM DM). On day 4 of differentiation, the medium was further replaced with B-27 medium supplemented with 1% AA and 10 μM FSK. […]
On day 7 of differentiation, the expression levels of somitic mesoderm marker genes PAX3 and PAX7 were measured. […]

253G1 cells [3] = assay: Pan-mesodermal marker gene expression (real-time PCR) on day 2 of differentiation; conditions: CHIR 1 to 6 μM, ratio to undifferentiated iPS cells
Experimental: as §1, with “with 1 to 6” for “with 5”
as §2

Row | Molecule | use of one reagent instead of the reference reagent (CHIR or SB) for induction (253G1 cells [1]; Matrigel (section 5-1)) | use of combined replacement reagents for induction (253G1 cells [1]; Matrigel (section 5-1)) | use of two reagents instead of SB and DM for induction (253G1 cells [1]) | use of one reagent instead of the reference reagent (SB or FSK) for induction (253G1 cells [1]) | expression of somitic mesoderm marker genes PAX3 and PAX7 (253G1 cells [2]) | BRACHYURY and TBX6 expression (253G1 cells [3]) | induction of differentiation into skeletal muscle precursor cells (253G1 cells [1]; Matrigel (section 5-1), 50 μM dbcAMP instead of FSK from day 4 of differentiation)
1 | 6-bromoindirubin-3-oxime [BIO] | it was possible | it was possible | – | – | – | – | –
2 | Cn1cc(C2=C(c3ccc(Cl)cc3Cl)C(=O)NC2=O)c2ccccc21 [5B216763, 3-(2,4-dichlorophenyl)-4-(1-methyl-1H-indol-3-yl)-1H-pyrrole-2,5-dione] | it was possible | it was possible | – | – | – | – | –
3 | Cc1cccc(-c2nn(C(=S)Nc3ccccc3)cc2-c2ccnc3ccccc23)n1 [A83-01, 3-(6-methyl-2-pyridinyl)-N-phenyl-4-(4-quinolinyl)-1H-pyrazole-1-carbothioamide] | it was possible | it was possible | it was possible | it was possible | – | – | –
4 | Cc1c[nH]c(-c2cnc(NCCNc3ccc(C#N)cn3)nc2-c2ccc(Cl)cc2Cl)n1 [CHIR, 6-[[2-[[4-(2,4-dichlorophenyl)-5-(4-methyl-1H-imidazol-2-yl)-2-pyrimidinyl]amino]ethyl]amino]nicotinonitrile] | – | – | – | – | high expression | increase in a CHIR concentration-dependent manner | –
5 | Cl.c1ccc2c(-c3cnn4cc(-c5ccc(N6CCNCC6)cc5)cnc34)ccnc2c1 [LDN193189, 4-[6-(4-piperazin-1-yl-phenyl)-pyrazolo[1,5-α]pyrimidin-3-yl]-quinoline hydrochloride] | – | it was possible | it was possible | – | – | – | –
6 | CCCC(=O)Nc1ncnc2c1ncn2[C@@H]1O[C@@H]2COP(=O)(O)O[C@H]2[C@H]1OC(=O)CCC [dbcAMP, dibutyryl cAMP] | – | it was possible | – | it was possible | – | – | it was possible to induce differentiation into skeletal muscle precursor cells
